Measured values taken from US11401255B2, “Small molecule activators of Parkin enzyme function” (Mayo Foundation for Medical Education and Research, priority 2016, dated 2022).
Where two headings read alike, the source gives them in different places.

Tests used:
FLAG-Parkin C431S = FLAG-Parkin C431S (Homo sapiens (Human), UniProt O60260, C431S); assay: Ub-charging of FLAG-Parkin C431S (western blot); assay type: cell-based; conditions: 5 μM or 1 μM, 2 h before 3.5 μM CCCP
Protocol: Another measure of Parkin activation is Ub charging of Parkin. Parkin receives Ub from an E2 enzyme to transfer it to a substrate protein. The Ub is bound by Parkin C431 in an unstable thioester bond. A serine substitution of this amino acid (C431S) leads to a stable oxyester bond. The bound Ub can then be visualized as a band shift in Western blot experiments. HeLa 3×FLAG-Parkin C431S cells were seeded in 12-well plates and allowed to attach overnight. Cells were treated with 5 μM (top panels) or 1 μM (bottom panels) of Compounds 1, 2, 3, 4, and 31 2 h before adding CCCP for another 2 h. 10 μM CCCP was added to positive control (PC) wells whereas all other samples received a low dose concentration of 3.5 μM. Cells were harvested in boiling hot SDS lysis buffer and protein concentration was determined by BCA. Samples were split and left either untreated or were treated with NaOH as indicated. Samples were run on an 8-16% Tris-Glycine gel, blotted onto membranes and probed with antibodies against Flag and pS65-Ub. GAPDH served as a loading control. Band shift indicates Parkin binding to Ubiquitin, which is cleavable with NaOH.
Cells were harvested in RIPA buffer or NP-40 lysis buffer containing protease and phosphatase inhibitors (Complete and PhosStop, Roche Applied Science) with the exception of Parkin Ub charging experiments where preheated (95° C.) SDS lysis buffer (50 mM Tris pH 7.6, 150 mM NaCl, 1% SDS) was used. Concentration of cell lysates was determined with bicinchoninic acid (Pierce Biotechnology). For Parkin Ub charging experiments, aliquots of lysates were treated with […] for 1 h at 37° C. pH was neutralized with equinormal HCl.
Protein was subjected to SDS-PAGE using 4-20% or 8-16% Tris-Glycine gels (Invitrogen) and transferred onto polyvinylidene fluoride (PVDF) (Millipore). Membranes were incubated with primary antibodies overnight at 4° C. followed by HRP-conjugated secondary antibodies (1:10,000; Jackson ImmunoResearch Laboratories). Primary antibodies used: beta III tubulin (rabbit, 1:1000, CST, #5568, CST), FLAG (mouse, 1:250,000, Sigma, F3165), GAPDH (mouse, 1:100,000-500,000, Meridian Life science, H86504M), GST (1:10,000, Sigma, G7781), MFN1 (mouse, 1:5,000, Abcam, ab57602), MFN2 (mouse, 1:5,000, Abcam, ab56889), Parkin (mouse, 1:2,000, Cell Signaling, #4211), pSer65-Ub (rabbit, 1:15,000, in-house (Fiesel et al., EMBO Reports (2015) 16:1114-30; Fiesel et al., (2015) Autophagy 11:2125-2126)), TOM70 (rabbit, 1:5,000, Proteintech, 14528-1-AP), UBE2L3 (rabbit, 1:10,000, ProteinTech, 14415-1-AP), VDAC1 (mouse, 1:5,000, Abcam, ab14734), vinculin (mouse, 1:100,000, Sigma, V9131).
HeLa 3×FLAG-Parkin C431S cells were seeded in 6-well plates and allowed to attach overnight. Cells were treated with […] of compounds 5, 21-28, 32, 33, or 43-46 2 h before adding CCCP for another 2 h. 10 VM CCCP was added to positive control (PC) wells, 3.5 μM CCCP to compound (+) and negative control (NC) wells. […] Cells were harvested in boiling hot SDS lysis buffer and protein concentration was determined by BCA. Samples were split and left either untreated or were treated with NaOH as indicated. Samples were run on an 8-16% Tris-Glycine gel, blotted onto membranes and probed with antibodies against Flag. Vinculin served as a loading control. Band shift indicates Parkin binding to Ubiquitin, which is cleavable with NaOH (FIG. 21).

TA 98 = assay: Ames Test, strain TA 98
Excerpt: The test used amino acid-dependent strains of Salmonella typhimurium and Escherichia coli to detect point mutations which involved substitution, addition or deletion of one or a few DNA base pairs. Point mutations were introduced in the histidine (Salmonella typhimurium) or the tryptophan (Escherichia coli) operon, making the tester strains incapable of producing these amino acids. The test detected mutations that revert the mutations present in the bacteria, restoring the functional capability to synthesize histidine or tryptophan. The revertant bacteria were detected by the ability to grow in the absence of the amino acid required by the parent test strain. A mutagenic potential of a tested compound was assessed by exposing these bacterial strains to different concentrations of the compounds and estimating number of revertant colonies grown in the absence (trace quantities) of the amino acid.
DMSO was used as the negative control.
For each experiment, tester strain cultures were grown overnight in Oxoid nutrient broth #2 at 37° C. with shaking at 235 rpm to a density of 1-2×10^9 colony forming units/mL (OD540˜2).
The tester strain (10 μL of night culture) was mixed with the test agent (10 µL of the DMSO stock) and GM liquid medium (30 μL). The obtained mixture was incubated at room temperature for 5 min in a sterile 1.5 mL tube. Then, to the tube was added 200 μL of molten top agar stored at 44° C. to prevent solidifying. After mixing with a pipette, the mixture was poured onto the surface of a GM agar plate (2.0 mL of GM agar per plate). After solidifying the top agar, the plate was inverted and incubated at 37° C. for 48 hours. Then, results were expressed as number of revertant colonies per plate.

hERG channel = hERG channel (Homo sapiens (Human), UniProt Q12809)
Excerpt: Fluorescence polarization (FP) readout technology is based on the observation that when a small fluorescent molecule (the tracer) is excited by the polarized light, the emitted light is largely depolarized because of the rapid rotation of the molecule in the solution during its fluorescence lifetime. The hERG predictor assay provides valuable information about the possible binding of test compounds to the potassium channel and potential QT prolongation on […].
All experiments were performed using the Predictor™ hERG Fluorescence Polarization Assay in accordance with the manufacturer's protocol PV5365 (Invitrogen, Carlsbad, Calif.).
The hERG reaction was performed by incubating the tracer and membranes with hERG channel for 2-4 hours in the solution. The fluorescence polarization was maximal when nothing interfered with the reaction of the tracer and hERG membranes (minimal tracer rotation). But when a tested compound competed with the tracer for the hERG channel, the polarization of emitted light lowered due to the ability of free unbound tracer to rotate rapidly in the solution.
All test points for the compounds were performed in quadruplicates. Three dilutions of the tested compounds were assessed—1 μM, 5 μM and 20 μM.

[1] = TA 98, 200 μM, baseline = mean of negative control + SD

hERG channel, sequence (Q12809 whole entry): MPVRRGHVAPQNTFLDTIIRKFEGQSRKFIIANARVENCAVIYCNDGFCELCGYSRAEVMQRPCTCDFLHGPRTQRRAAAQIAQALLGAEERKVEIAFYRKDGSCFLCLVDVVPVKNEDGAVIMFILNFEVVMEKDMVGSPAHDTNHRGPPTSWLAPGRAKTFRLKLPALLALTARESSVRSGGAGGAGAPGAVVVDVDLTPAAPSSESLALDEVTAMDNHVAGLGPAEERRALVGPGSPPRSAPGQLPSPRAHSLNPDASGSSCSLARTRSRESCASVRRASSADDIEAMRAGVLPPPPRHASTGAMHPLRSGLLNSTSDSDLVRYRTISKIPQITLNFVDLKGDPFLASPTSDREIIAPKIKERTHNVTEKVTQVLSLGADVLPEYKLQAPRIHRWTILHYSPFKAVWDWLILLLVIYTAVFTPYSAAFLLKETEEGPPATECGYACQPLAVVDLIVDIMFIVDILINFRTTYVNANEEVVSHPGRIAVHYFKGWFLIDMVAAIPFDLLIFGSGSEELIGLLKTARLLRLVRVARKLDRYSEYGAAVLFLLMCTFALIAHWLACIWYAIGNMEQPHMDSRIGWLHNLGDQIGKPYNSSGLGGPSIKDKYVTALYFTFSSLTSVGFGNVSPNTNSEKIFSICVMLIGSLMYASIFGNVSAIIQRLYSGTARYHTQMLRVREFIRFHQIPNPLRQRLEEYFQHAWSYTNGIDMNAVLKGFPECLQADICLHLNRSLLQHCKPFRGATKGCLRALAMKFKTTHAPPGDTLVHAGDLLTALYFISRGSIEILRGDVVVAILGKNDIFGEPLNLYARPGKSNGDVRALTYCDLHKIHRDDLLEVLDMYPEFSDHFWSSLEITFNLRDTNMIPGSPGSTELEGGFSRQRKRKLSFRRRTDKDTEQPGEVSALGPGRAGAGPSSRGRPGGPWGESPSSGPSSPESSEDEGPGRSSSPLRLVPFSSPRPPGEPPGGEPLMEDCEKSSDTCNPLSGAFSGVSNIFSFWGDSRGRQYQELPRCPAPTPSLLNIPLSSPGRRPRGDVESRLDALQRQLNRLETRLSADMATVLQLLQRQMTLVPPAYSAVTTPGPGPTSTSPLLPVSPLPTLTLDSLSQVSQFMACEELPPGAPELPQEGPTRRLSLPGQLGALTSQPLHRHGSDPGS

## O=C(Cn1cnc2c1CCCC2)Nc1ccc(-c2ccccc2)cc1 [Compound 1]
FLAG-Parkin C431S
  Ub-charging of FLAG-Parkin C431S (WB): enhanced Ub-charging
TA 98; TA 98, 50 μM
  Fold increase (over baseline): 0.46
  Mean ± SD: 1.5 ± 0.7 revertant colonies per plate
TA 98; TA 98, 100 μM
  Fold increase (over baseline): 0.2
  Mean ± SD: 0.5 ± 0.7 revertant colonies per plate
TA 98; TA 98, 200 μM
  Mean ± SD: 0 ± 0 revertant colonies per plate
TA 98; [1]
  Fold increase (over baseline): 0
hERG channel; 1 μM
  Binding values, % Mean: 83%
hERG channel; 5 μM
  Binding values, % Mean: 99%
hERG channel; 20 μM
  Binding values, % Mean: 103%

## CC(C)c1nccn1CC(=O)Nc1ccc(-c2ccccc2)cc1 [Compound 2]
FLAG-Parkin C431S
  Ub-charging of FLAG-Parkin C431S (WB): enhanced Ub-charging
TA 98; TA 98, 50 μM
  Fold increase (over baseline): 0.3
  Mean ± SD: 1 ± 1.41 revertant colonies per plate
TA 98; TA 98, 100 μM
  Fold increase (over baseline): 0.2
  Mean ± SD: 0.5 ± 0.7 revertant colonies per plate
TA 98; TA 98, 200 μM
  Mean ± SD: 0.5 ± 0.7 revertant colonies per plate
TA 98; [1]
  Fold increase (over baseline): 0.2
hERG channel; 1 μM
  Binding values, % Mean: 47%
hERG channel; 5 μM
  Binding values, % Mean: 74%
hERG channel; 20 μM
  Binding values, % Mean: 91%

## CC(C)(C)Sc1ccc(NC(=O)Cn2ccnc2)cc1 [Compound 3]
FLAG-Parkin C431S
  Ub-charging of FLAG-Parkin C431S (WB): enhanced Ub-charging
TA 98; TA 98, 50 μM
  Fold increase (over baseline): 0.46
  Mean ± SD: 1.5 ± 0.7 revertant colonies per plate
TA 98; TA 98, 100 μM
  Fold increase (over baseline): 0.2
  Mean ± SD: 0.5 ± 0.7 revertant colonies per plate
TA 98; TA 98, 200 μM
  Mean ± SD: >1000 revertant colonies per plate
  mutagenic activity: mutagenic activity
TA 98; [1]
  Fold increase (over baseline): >312
hERG channel; 1 μM
  Binding values, % Mean: 41%
hERG channel; 5 μM
  Binding values, % Mean: 115%
hERG channel; 20 μM
  Binding values, % Mean: 99%

## O=C(Cn1ccnc1-c1ccccn1)Nc1ccc(-c2ccccc2)cc1 [Compound 4]
FLAG-Parkin C431S
  Ub-charging of FLAG-Parkin C431S (WB): enhanced Ub-charging
TA 98; TA 98, 50 μM
  Fold increase (over baseline): 0.46
  Mean ± SD: 1.5 ± 0.7 revertant colonies per plate
TA 98; TA 98, 100 μM
  Fold increase (over baseline): 0
  Mean ± SD: 0 ± 0 revertant colonies per plate
TA 98; TA 98, 200 μM
  Mean ± SD: 0 ± 0 revertant colonies per plate
TA 98; [1]
  Fold increase (over baseline): 0
hERG channel; 1 μM
  Binding values, % Mean: 26%
hERG channel; 5 μM
  Binding values, % Mean: 27%
hERG channel; 20 μM
  Binding values, % Mean: 22%

## Cc1nc2c(c(N3CCCN(Cc4ccccc4)CC3)n1)CCCC2 [Compound 31]
FLAG-Parkin C431S
  Ub-charging of FLAG-Parkin C431S (WB): enhanced Ub-charging
TA 98; TA 98, 50 μM
  Fold increase (over baseline): 0.2
  Mean ± SD: 0.5 ± 0.7 revertant colonies per plate
TA 98; TA 98, 100 μM
  Fold increase (over baseline): 0.3
  Mean ± SD: 1 ± 0 revertant colonies per plate
TA 98; TA 98, 200 μM
  Mean ± SD: 1 ± 1.41 revertant colonies per plate
TA 98; [1]
  Fold increase (over baseline): 0.3
hERG channel; 1 μM
  Binding values, % Mean: 45%
hERG channel; 5 μM
  Binding values, % Mean: 73%
hERG channel; 20 μM
  Binding values, % Mean: 88%
